From ChEMBL document CHEMBL1201862, “PubChem BioAssay data set” (2004) come the findings set out here.

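Growth conditions: 96-well plates. Treatment: test compound, 48 hours, 5 concentrations. Analysis: linear interpolation between bracketing concentrations; unreached endpoints set to highest concentration. At the GI50, growth is halved.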 Active and inactive are the calls of the source. Rule as the data show it: active = GI50 up to about 1.1 µM and inactive = higher. A value given as a limit tells only on which side of the number the result lay.

Among the test systems are HCC 2998; HOP-62; OVCAR-5; NCI-H522; ACHN; OVCAR-4; 786-0; A498; COLO 205; OVCAR-8; SR; HL-60; NCI-H226; TK-10; SK-MEL-2; NCI-H23; CCRF-CEM; MCF7; HT-29; Malme-3M.
Test in all cases: inhibition of tumour cell growth, NCI panel, 48 h

On to `CCOC(=O)/C=C(\C(=O)OCC)n1ccc(=O)n(Cc2cnnn2CCCCOC(C)=O)c1=O`, for which the GI50 is 18.4 µM (inactive) with HCC 2998; 19.7 µM (inactive) in the assay on HOP-62; 12.4 µM (inactive) with OVCAR-5; 1.53 µM (inactive) in the assay on NCI-H522; 1.83 µM (inactive) in the assay on ACHN; 12.3 µM (inactive) in the assay with OVCAR-4. The GI50 in the assay on 786-0 is 3.46 µM (inactive); in the assay on A498 it was 21.1 µM (inactive); with COLO 205, 1.3 µM (inactive); in the assay with OVCAR-8, 5.08 µM (inactive); in the assay with SR it was 2.19 µM (inactive); with HL-60 it was 2.79 µM (inactive). In addition, the GI50 was 17.6 µM (inactive) in the assay with NCI-H226; 4.54 µM (inactive) in the assay with TK-10; 14.7 µM (inactive) in the assay with SK-MEL-2; 13.2 µM (inactive) in the assay on NCI-H23; 1.99 µM (inactive) with CCRF-CEM; 4.79 µM (inactive) with MCF7. The GI50 in the assay with HT-29 was 9.08 µM (inactive); in the assay on Malme-3M it was 2.06 µM (inactive).

Regarding `OCC1=C[C@@](COCc2ccccc2)(OCc2ccccc2)[C@@H](OCc2ccccc2)[C@@H]1OCc1ccccc1`, the GI50 in the assay on HCC 2998 is 13.7 µM (inactive); in the assay on HOP-62, 24.2 µM (inactive); with OVCAR-5 it was 26.3 µM (inactive); in the assay with NCI-H522, 11 µM (inactive); in the assay with ACHN, 22.9 µM (inactive); with OVCAR-4 it was 21.4 µM (inactive). Also, the GI50 in the assay on 786-0 was 20.7 µM (inactive); in the assay with A498 it was 10.9 µM (inactive); in the assay on COLO 205 it was 11.6 µM (inactive); in the assay on OVCAR-8, 36.2 µM (inactive); with SR, 12.2 µM (inactive); in the assay on HL-60, 23.4 µM (inactive). Besides, the GI50 is 15.5 µM (inactive) with NCI-H226; 21.3 µM (inactive) in the assay with TK-10; 12.7 µM (inactive) in the assay with SK-MEL-2; 16.6 µM (inactive) with NCI-H23; 2.81 µM (inactive) in the assay on CCRF-CEM; 3.76 µM (inactive) in the assay on MCF7. For the same compound, the GI50 in the assay with HT-29 was 12.7 µM (inactive); in the assay with Malme-3M, 18 µM (inactive).

As for `CCCCNC(=O)OCCN=C1c2ccccc2C(Br)C(Br)c2ccccc21` (stereo not given), the GI50 was > 100 µM (inactive) in the assay with HCC 2998; 25.9 µM (inactive) in the assay on HOP-62; > 100 µM (inactive) in the assay on OVCAR-5; 22.2 µM (inactive) with NCI-H522; 24.2 µM (inactive) in the assay with ACHN; 23.8 µM (inactive) in the assay with OVCAR-4. Moreover, the GI50 with 786-0 was 14.6 µM (inactive); in the assay with A498, 41.5 µM (inactive); with COLO 205 it was 20.2 µM (inactive); with OVCAR-8 it was 27.6 µM (inactive); in the assay on SR, 21.3 µM (inactive); in the assay with HL-60, 9.04 µM (inactive). Also, the GI50 in the assay on NCI-H226 was 76.9 µM (inactive); in the assay on TK-10, 25.4 µM (inactive); in the assay with SK-MEL-2, 42.9 µM (inactive); in the assay with NCI-H23, 26.3 µM (inactive); in the assay with CCRF-CEM, 10.1 µM (inactive); in the assay with MCF7 it was 58.2 µM (inactive). Moreover, the GI50 with HT-29 was 12.5 µM (inactive); in the assay with Malme-3M it was 23.3 µM (inactive).

Take `Cc1ccc(/C=C2\Cc3c(C)cc(C)cc3C2=O)c(C(=O)O)c1`: the GI50 with HCC 2998 was 38.4 µM (inactive); with HOP-62, 83.4 µM (inactive); in the assay with OVCAR-5, 33.2 µM (inactive); with NCI-H522, 78.9 µM (inactive); in the assay on ACHN it was 59.6 µM (inactive); in the assay on OVCAR-4 it was 34.7 µM (inactive). The GI50 in the assay with 786-0 was 61.5 µM (inactive); in the assay with A498, 30.1 µM (inactive); in the assay on COLO 205, 34.8 µM (inactive); in the assay on OVCAR-8 it was 51.8 µM (inactive); in the assay with SR it was 29.4 µM (inactive); in the assay on HL-60 it was 23.1 µM (inactive). Also, the GI50 in the assay on NCI-H226 is 23.8 µM (inactive); with TK-10, 83.4 µM (inactive); in the assay with SK-MEL-2, 24.4 µM (inactive); in the assay on NCI-H23 it was 55.5 µM (inactive); in the assay on CCRF-CEM it was 35.1 µM (inactive); in the assay on MCF7, 56.2 µM (inactive). The GI50 in the assay with HT-29 is 45.3 µM (inactive); in the assay with Malme-3M, 72.3 µM (inactive).

For `COc1cc(/C=C/C(=O)CC(=O)/C=C/c2ccc(O)c(OC)c2)ccc1O` [CURCUMIN], the GI50 in the assay with HCC 2998 was 3.02 µM (inactive); in the assay with HOP-62, 3.63 µM (inactive); in the assay on OVCAR-5, 16.6 µM (inactive); in the assay with NCI-H522, 5.33 µM (inactive); in the assay with ACHN, 12.4 µM (inactive); with OVCAR-4 it was 9.33 µM (inactive). Besides, the GI50 is 3.33 µM (inactive) in the assay with 786-0; 16 µM (inactive) in the assay on A498; 13.5 µM (inactive) in the assay on COLO 205; 7.35 µM (inactive) in the assay with OVCAR-8; 3.28 µM (inactive) in the assay on SR; 7.33 µM (inactive) in the assay with HL-60. Moreover, the GI50 in the assay with NCI-H226 is 18.8 µM (inactive); in the assay on TK-10, 14.2 µM (inactive); with SK-MEL-2, 16.5 µM (inactive); in the assay on NCI-H23 it was 5.6 µM (inactive); in the assay with CCRF-CEM, 3.03 µM (inactive); in the assay on MCF7 it was 3.34 µM (inactive). Moreover, the GI50 in the assay on HT-29 was 5.09 µM (inactive); in the assay with Malme-3M, 14 µM (inactive).

On to `COc1cccc(C(=O)C#Cc2cnc(OC)nc2OC)c1`, for which the GI50 with HCC 2998 is 6.43 µM (inactive); in the assay with HOP-62, 13.5 µM (inactive); in the assay with OVCAR-5 it was 2.91 µM (inactive); in the assay with NCI-H522 it was 0.226 µM (active); in the assay with ACHN, 1.73 µM (inactive); in the assay with OVCAR-4 it was 2.36 µM (inactive). The GI50 in the assay with 786-0 is 1.83 µM (inactive); in the assay on A498, 8.69 µM (inactive); in the assay with COLO 205, 1.77 µM (inactive); in the assay with OVCAR-8, 1.7 µM (inactive); with SR, 0.108 µM (active); in the assay on HL-60, 0.682 µM (active). The GI50 in the assay with NCI-H226 is 1.11 µM (active); with TK-10 it was 1.43 µM (inactive); with SK-MEL-2 it was 1.8 µM (inactive); in the assay with NCI-H23 it was 1.98 µM (inactive); in the assay on CCRF-CEM, 0.0286 µM (active); in the assay with MCF7 it was 0.126 µM (active). Further, the GI50 in the assay with HT-29 was 1.09 µM (active); in the assay on Malme-3M, 1.38 µM (inactive).

`COC(=O)C1(OC(=O)Sc2ccccc2)CCN(C)CC1`: the GI50 in the assay with HCC 2998 was 28.6 µM (inactive); in the assay with HOP-62 it was 32.1 µM (inactive); in the assay with OVCAR-5, 35.3 µM (inactive); in the assay with NCI-H522, 16.2 µM (inactive); in the assay on ACHN it was 15.7 µM (inactive); in the assay on OVCAR-4, 23.2 µM (inactive). Further, the GI50 in the assay on 786-0 is 19 µM (inactive); with A498, 21.8 µM (inactive); with COLO 205, 9.82 µM (inactive); with OVCAR-8, 16.7 µM (inactive); with SR it was 10.8 µM (inactive); in the assay with HL-60, 5.96 µM (inactive). In addition, the GI50 in the assay with NCI-H226 was 13.6 µM (inactive); in the assay on TK-10, 41.3 µM (inactive); in the assay with SK-MEL-2, 58.3 µM (inactive); in the assay on NCI-H23, 14.1 µM (inactive); in the assay with CCRF-CEM, 1.84 µM (inactive); in the assay with MCF7, > 52 µM (inactive). The figures for the GI50 in the assay with HT-29 and with Malme-3M were 21.4 µM (inactive) and 63.7 µM (inactive), respectively.

Take `C[C@]12CCC(=O)C=C1CC[C@@H]1[C@@H]2[C@@H](O)C[C@@]2(C)[C@H]1CC[C@]2(O)C(=O)COC(=O)C1CCCC1`: the GI50 in the assay with HCC 2998, in the assay with HOP-62, in the assay on OVCAR-5, in the assay with NCI-H522, with ACHN and with OVCAR-4 was > 100 µM (inactive) in each case. Besides, the GI50 in the assay on 786-0 was > 100 µM (inactive); in the assay with A498, > 100 µM (inactive); in the assay with COLO 205 it was > 100 µM (inactive); with OVCAR-8, > 100 µM (inactive); with SR, 43.3 µM (inactive); in the assay with HL-60, > 100 µM (inactive). In addition, the GI50 with NCI-H226 is > 100 µM (inactive); in the assay with TK-10, > 100 µM (inactive); in the assay on SK-MEL-2 it was > 100 µM (inactive); in the assay with NCI-H23, > 100 µM (inactive); with CCRF-CEM it was 7.73 µM (inactive); in the assay on MCF7, > 100 µM (inactive). For the same compound, the GI50 is 67.8 µM (inactive) in the assay with HT-29 and > 100 µM (inactive) in the assay with Malme-3M.

On to `CC(C)(C)OC(=O)NC(CSSCC(NC(=O)OC(C)(C)C)C(=O)O)C(=O)O` (stereo not given), for which the GI50 in the assay on HCC 2998, with HOP-62, in the assay on OVCAR-5, in the assay with NCI-H522, with ACHN and with OVCAR-4 was > 100 µM (inactive) in each case. Moreover, the GI50 with 786-0, with A498, in the assay on COLO 205, with OVCAR-8, in the assay on SR and with HL-60 was > 100 µM (inactive) each time. In addition, the GI50 in the assay with NCI-H226, in the assay on TK-10, in the assay with SK-MEL-2, in the assay with NCI-H23, in the assay with CCRF-CEM and in the assay with MCF7 was > 100 µM (inactive) each time. For the same compound, the GI50 in the assay on HT-29 and with Malme-3M was > 100 µM (inactive) each time.
